For one test, the system named is corn. Description: Field experiment on application of nano-carbon urea in corn (2016, Inner Mongolia). The format is in vivo, corn variety Simon 568. To be noted: Pure N 20 kg/a unit of area (no nitrogen reduction). The source says:
The results of the experiment on the application of nano-carbon urea by bimeng academy of agricultural sciences in Inner Mongolia in 2016 are as follows: Nano-carbon urea is provided by the invention containing 46% nitrogen, and the amount of nano-carbon sol added is 10% of fertilizer weight, color: grey. Corn variety: Simon 568 Test site: Garden Canal Test Station of Agriculture and Animal Husbandry Science Research Institute, Bayannur City Random plot arrangement, 5 treatments, four repeats, […], mulch planting.

A further test concerns soybean. Put plainly: Soybean potted test of nano urea (Heilongjiang). Format: in vivo. To be noted: urea 10.8 g per pot (full dosage), 3 plants per pot. The source says:
Soybean Experiment in Heilongjiang Agricultural Academy Test site: Heilongjiang Academy of Agricultural Sciences Laboratory Entrusted unit: Plant Nutrition and Environment Institute of Heilongjiang Agricultural Academy To determine the application effect and nitrogen utilization rate of nano-fertilizer on soybean and rice. Nano urea (46-0-0), calcium superphosphate (0-43-0), potassium sulfate (0-0-0-50), nano carbon sol content 0.57% solute, added amount is 10% of urea weight. Soybeans Potted Test There 3 plants per pot, repeat 6 times. N:P:K rating is 5:3.5:3, the results are as follows: […]

On to `NC(N)=O` [Common urea, urea], for which the “Yield kg/a unit of area” value with corn is 1002.98 kg/a unit of area. In the test with soybean, this compound returned an Average yield g/pot of 50 g/pot.

Source of the values: US10625229B2, “Device for preparing nano-carbon urea” (BEIJING NANO HI-TECH MATERIAL CO., LTD., priority 2016, dated 2020).
